Data from US20060040859A1, “Peptides, DNAs, RNAs, and compounds for inhibiting or inducing adrenomedullin activity, and use of the same” (priority 2002, published 2006).
“Also recorded” adds a separate entry of the source.

Legend:
[1] = tested on: proliferating cell nuclear antigen (PCNA) of tumor cells; assay: Anti-PCNA staining of tumor cells (Example 5); assay type: in vivo, mouse; settings: for cells reacting with the anti-PCNA antibody: FIG. 6; for PCNA-labelling index: tumor cells of treated mice
Source text: The effect of a peptide of the present invention on cell proliferation was examined. The proliferating cell nuclear antigen (PCNA) of tumor cells from the mice used in Example 2 was stained with anti-PCNA antibody. The staining method was the same as in Example 4. Five mice were used in the experiment. The staining results for tumor cells of an adrenomedullin-administered mouse are shown on the left side in FIG. 6, while those of an adrenomedullin antagonist-administered mouse are shown on the right side.

HUVEC cells [2] = assay: MTS assay, AMA with AM on endothelial cells under hypoxic and nutrient-deprived conditions (Example 7C); assay type: cell-based; settings: AM 10^-6 M, AMA 0 to 10^-6 M, VEGF and FGF 10 ng/ml, 48 h
Method: (§1) The effect of both AM and AMA together on the growth and apoptosis of endothelial cells under extreme conditions (hypoxic and nutrient-deprived) and in the presence of growth factors is examined herein. As in Example 1 above, hypoxic conditions comprised culture in 1% O2 concentration for 12 h using a hypoxic culture chamber (Wakenyaku Industry) and nutrient-deprived conditions involved addition of only 13 mg/dl glucose.
(§2) Five×10^3 cells (2×10^4 in some experiments) were plated in wells of 96-well plates. Human adrenomedullin (AM) (SEQ ID NO: 1) was added at a concentration of 10^−6 M and a human adrenomedullin antagonist peptide (AMA) (SEQ ID NO: 2) was added at indicated concentrations, ranging from 0 to 10^−6 M. VEGF and FGF were added at 10 ng/ml. The cells were incubated for 48 h and the viable cell numbers were determined by the MTS assay according to the manufacturer's instructions as described above in Example 7A.

cancer cells = assay: In vitro growth of cancer cells with AMA; assay type: cell-based
[3] = tested on: newly generated blood vessels; assay: Anti-CD31 staining and diameters of newly generated blood vessels in tumor tissue (Example 4); assay type: in vivo, mouse; settings: for Average ± standard deviation of blood vessel diameters: 100 newly generated blood vessels; for Number of blood vessels 2 μm to less than 8 μm / Number of blood vessels 8 μm or more / Number of blood vessels less than 2 μm: of 100 arbitrarily selected newly generated blood vessels, by diameter; for newly generated blood vessels by anti-CD31 staining: tumor tissue of Example 3 mice, FIG. 5
Method: The effect of a peptide of the present invention on angiogenesis was examined. Experiments were carried out with the tumor tissues of mice used in Example 3. Mouse tumor tissues were extirpated, and CD31 antigen, which is the cell surface marker specific for vascular endothelial cells, was stained with anti-CD31 antibody. Staining was performed as described below. The experiments were carried out using five mice.
Tumor tissues were frozen in liquid nitrogen to prepare frozen sections. After the frozen sections were pre-treated in albumin solution for 30 min, endogenous peroxidase activity was suppressed with hydrogen peroxide, and then, the sections were treated with anti-CD31 antibody for 1 h at room temperature. After washing, the sections were treated with a secondary antibody for 1 h, and coloured using […].
Next, 100 newly generated blood vessels of the vascular endothelial cells used in Example 4 were arbitrarily selected to measure their respective diameters. In Table 1, results of the number of the newly generated blood vessels classified by their diameters into three groups (less than 2 μm, 2 μm to less than 8 μm, and 8 μm or more) are shown together with the average of blood vessel diameters and standard deviations. In Table 1, AM stands for adrenomedullin, and AMA adrenomedullin antagonist.

PCI-43 cells [4] = assay: Intra-tumoral injection of AM or AMA peptide, extirpated PCI-43 tumor size and weight (Example 3); assay type: in vivo, mouse
Method: On the dorsal side of CB17lcr-scid Jl mice (CLEA JAPAN Inc.), 10^7 PCI-43 cells were subcutaneously transplanted. It was confirmed that PCI-43 cells proliferated to form a tumor, and that the tumor diameter exceeded 5 mm after 7 days. After that confirmation, 50 μg each […] of adrenomedullin and adrenomedullin antagonist (dissolved in 0.1 ml of physiological saline) was injected into the tumor once every three days from the 7th day, that is, on the 7th, 10th, 13th, and 16th days. Adrenomedullin and adrenomedullin antagonist used herein were the same as those used in Example 1.
Mice were sacrificed on the 21st day, and tumors were extirpated and weighed.

PCI-43 cells [5] = assay: Intra-tumoral injection of AM or AMA peptide, tumor size of PCI-43 xenograft (Example 2); assay type: in vivo, mouse; settings: 50 μg in 0.1 ml saline into the tumor once a day, 7th to 16th day, observed to 21st day, SCID mice
Method: On the dorsal side of a CB17lcr-scid Jl mouse (CLEA JAPAN Inc.), 10^7 PCI-43 cells were subcutaneously transplanted. It was confirmed that PCI-43 cells proliferated to form a tumor, and that the tumor diameter exceeded 5 mm after 7 days. After that confirmation, 50 μg […] each of adrenomedullin and a peptide of the present invention (dissolved in 0.1 ml of physiological saline) was injected into the tumor once a day starting on the 7th day until the 16th day. A peptide consisting of SEQ ID NO: 2 was used as the peptide of the present invention (hereinafter also referred to as an “adrenomedullin antagonist (AMA)”). This peptide was purchased from Wako Pure Chemical Industries, Ltd.
The tumor diameter was megascopically measured every three days. Results are shown in FIG. 2, a graphical representation of tumor sizes when adrenomedullin, adrenomedullin antagonist, and physiological saline (V3), respectively, were administered. The horizontal axis represents the number of days after transplanting PCI-43 cells, and the vertical axis the size of the tumor in volume (mm^3). Arrows at the upper part of the graph indicate timings of administration of adrenomedullin, adrenomedullin antagonist, and physiological saline. Five CB 17lcr-scid Jl mice were used in each group.

HUVEC cells [6] = assay: MTS assay, endothelial cells under hypoxic and nutrient-deprived conditions with VEGF and FGF (Example 7B); assay type: cell-based; settings: hypoxic and glucose-deprived, AM 0 to 10^-6 M, VEGF and FGF 10 ng/ml, 48 h
Method: as §1, with “of” for “of both”, “AM” for “AM and AMA together”
as §2, with “1)” for “1) was added at a concentration of 10^−6 M and a human adrenomedullin antagonist peptide (AMA) (SEQ ID NO: 2)”

U87 glioblastoma cells = settings: exogenously added; cited from earlier work
[7] = tested on: Mitogen-activated protein kinases (MAPKS); assay: MAPK activity in Rat-2 cells; assay type: cell-based
Source text: (§3) In order to skip this problem, cell lines expressing endogenous adrenomedullin binding. Three cell lines to date are available. L6 cells are a rat myoblast cell line known to express CGRP1 receptors, Swiss 3T3 cells are a mouse fibroblast cell line, and Rat-2 cells are rat fibroblasts. […] L6 cells express CRLR and RAMPs 1 and 2. In Swiss 3T3 cells the effects of adrenomedullin were mediated via specific adrenomedullin receptors. […] These cells are useful in establishing the screening system to inhibit functionally the intracellular signal transduction after a receptor engagement by adrenomedullin.

Rat-2 cells = assay: Intracellular cAMP in Rat-2 cells; assay type: cell-based; settings: in the absence of CGRP binding
Source text: as §3

HUVEC cells [8] = assay: MTS assay, endothelial cell growth under normoxic, normal glucose conditions (Example 7A); assay type: cell-based; settings: AM 0 to 10^-6 M, 48 h, normoxic and nutrient-supplied
Method: The effect of AM on the growth of endothelial cells under normal conditions (normoxia, normal glucose) is examined herein. As in Example I above, normoxic conditions comprised culture in 20% O2 concentration and normal glucose conditions involved addition of 100 mg/dl of glucose or higher.
Five×10^3 cells (2×10^4 in some experiments) were plated in wells of 96-well plates. Human adrenomedullin (AM) (SEQ ID NO: 1) was added at indicated concentrations, ranging from 0 to 10^−6 M. The cells were incubated for 48 h and the viable cell numbers were determined by MTS assay according to the manufacturer's instructions. Cell viability can be reflected by the integrity of the mitochondria. When the MTS reagent (a tetrazolium salt) is applied to living cells, it is converted to a color compound (formazan) […] at 490 nm. Accordingly, the MTS assay may be used to assay cell viability and to count viable cells.

Row | Substance | cells reacting with the anti-PCNA antibody [1] | PCNA-labelling index [1] | Average ± standard deviation of blood vessel diameters [3] [μm] | Number of blood vessels 2 μm to less than 8 μm [3] | Number of blood vessels 8 μm or more [3] | Number of blood vessels less than 2 μm [3] | newly generated blood vessels by anti-CD31 staining [3] | apoptosis of endothelial cells (viable cells, O.D.) (HUVEC cells [6]) | other results
1 | AMA: 31 amino acid truncated human adrenomedullin lacking the first 21 N-terminal amino acids (SEQ ID NO: 2), purchased from Wako | few cells reacted with the anti-PCNA antibody | 6.3±5.2 | 2.276 ± 1.120 | 44 | 1 | 55 | newly generated blood vessels were thin |  | proliferating cells compared to adrenomedullin-administered mice ([1]; mouse, in vivo): decreased by about one quarter; apoptosis of endothelial cells (viable cells, O.D.) (HUVEC cells [2]): induced apoptosis of the endothelial cells in a dose dependent manner; growth inhibitory effect on cancer cells in vitro (cancer cells): did not exhibit any growth inhibitory effect; blood vessel diameters relative to adrenomedullin-administered mice ([3]; mouse, in vivo): one half; tumor weight relative to adrenomedullin-administered group (PCI-43 cells [4]; 21st day): about half; size of the extirpated tumor compared to adrenomedullin-administered group (PCI-43 cells [4]; 21st day, photograph FIG. 3, listed as adrenomedullin antagonist): became smaller; also recorded: noticeably smaller; tumor size (volume) (PCI-43 cells [5]; listed as adrenomedullin antagonist): became almost megascopically invisible; also recorded: reduction in tumor volume
2 | VEGF |  |  |  |  |  |  |  | underwent apoptosis | 
3 | adrenomedullin (YRQSMNNFQGLRSFGCRFGTCTVQKLAHQIYQFTDKDKDNVAPRSKISPQGY; listed as Homo sapiens) [AM, reference compound] | many cells reacting with the anti-PCNA antibody were present | 25.8±3.9 | 6.454 ± 5.313 | 54 | 31 | 15 | thick blood vessels were newly generated | protected the endothelial cells from apoptosis | growth of glioblastoma cells in vitro (U87 glioblastoma cells): can stimulate the growth; PDGF-stimulated and basal MAPK activity [7]: potently and dose-dependently inhibited; intracellular cAMP (Rat-2 cells): dose-dependent stimulation of intracellular cAMP; tumor weight (PCI-43 cells [4]; 50 μg into the tumor on 7th, 10th, 13th, 16th days, tumors extirpated on 21st day): about 0.05 g; growth of endothelial cells (viable cells, O.D.) (HUVEC cells [8]): no significant effect; tumor size (volume) (PCI-43 cells [5]): the tumor size hardly changed
